# Measured values reported in patent US12162878B2 (HINOVA PHARMACEUTICALS INC., priority 2018, dated 2024).
# Test system: CWR22RV1 cells
# Assay: Inhibition of proliferation of CWR22RV1 cells (CCK-8)
# Type: cell-based, human
# Conditions: Homo sapiens, CWR22Rv1, 144 h, 6 days
# Summary of the method: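 Cells seeded at 1500/well, cultured overnight, then exposed to compounds in 3-fold dilutions (9 concentrations from 10 μM top final, 0.1% DMSO) for 6 days at 37 °C. Viability read by CCK-8 absorbance at 450 nm after 2.5 h; IC50 from dose-response inhibition fit.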
row,SMILES,IC50
1,"[2H]C([2H])([2H])n1cc(-c2cc(S(C)(=O)=O)cnc2N2CCC3(CC2)CC3)c2cc[nH]c2c1=O [Compound 187, 6-trideuteromethyl-4-(5(methylsulfonyl)-2-(6-aza-spiro[2.5]octan-6-yl)pyridin-3-yl)-1H-pyrrolo[2,3-c]pyridin-7(6H)-one]",19 nM
2,"[2H]C([2H])([2H])n1cc(-c2cc(S(=O)(=O)C(C)C)cnc2N2CCC3(CC2)CC3)c2cc[nH]c2c1=O [Compound 188, 4-(5-(isopropylsulfonyl)-2-(6-aza-spiro[2.5]octan-6-yl)pyridin-3-yl)-6-trideuteromethyl-1H-pyrrolo[2,3-c]pyridin-7(6H)-one]",38 nM
3,"[2H]C([2H])([2H])n1cc(-c2cc(NS(C)(=O)=O)ccc2N2CCC3(CC2)COC3)c2cc[nH]c2c1=O [Compound 189, N-(3-(6-trideuteromethyl-7-oxo-6,7-dihydro-1H-pyrrolo[2,3-c]pyridin-4-yl)-4-(2-oxa-7-aza-spiro[3.5]nonan-7-yl)phenyl)methanesulfonamide]",120 nM
4,"CCS(=O)(=O)Nc1ccc(N2CC3CC2CO3)c(-c2cn(C)c(=O)c3[nH]ccc23)c1 (stereo not drawn) [Compound 190, N-(4-(2-oxa-5-azabicyclo[2.2.1]heptan-5-yl)-3-(methyl-7-oxo-6,7-dihydro-1H-pyrrolo[2,3-c]pyridin-4-yl)phenyl)ethanesulfonamide]",180 nM
5,"Cn1cc(-c2cc(NS(=O)(=O)C3COC3)ccc2N2CCC3(CC3)C2)c2cc[nH]c2c1=O [Compound 191, N-(3-(6-methyl-7-O-6,7-dihydro-1H-pyrrolo[2,3-c]pyridin-4-yl)-4-(5-aza-spiro[2.4]heptan-2-yl)phenyl)oxetane-3-ylsulfonamide]",140 nM
6,"Cn1cc(-c2cc(NS(C)(=O)=O)ccc2N2CC3CC2CO3)c2cc[nH]c2c1=O (stereo not drawn) [Compound 192, N-(4-(2-oxa-5-azabicyclo[2.2.1]heptan-5-yl)-3-(6-methyl-7-oxo-6,7-dihydro-1H-pyrrolo[2,3-c]pyridin-4-yl)phenyl)methanesulfonamide]",310 nM
7,"CCS(=O)(=O)Nc1ccc(N2CCC3(CC2)COC3)c(-c2cn(C)c(=O)c3[nH]ccc23)c1 [Compound 194, N-(3-(6-methyl-7-oxo-6,7-dihydro-1H-pyrrolo[2,3-c]pyridin-4-yl)-4-(2-oxa-7-aza-spiro[3.5]nonan-7-yl)phenyl)ethanesulfonamide]",46 nM
8,"Cn1cc(-c2cc(NS(C)(=O)=O)ccc2N2CCC3(CC2)COC3)c2cc[nH]c2c1=O [Compound 195, N-(3-(6-methyl-7-oxo-6,7-dihydro-1H-pyrrolo[2,3-c]pyridin-4-yl)-4-(2-oxa-7-aza-spiro[3.5]nonan-7-yl)phenyl)methanesulfonamide]",160 nM
9,"[2H]C([2H])([2H])n1cc(-c2cc(NS(=O)(=O)CC)ccc2N2CCC3(CC2)COC3)c2cc[nH]c2c1=O [Compound 196, N-(3-(6-trideuteromethyl-7-oxo-6,7-dihydro-1H-pyrrolo[2,3-c]pyridin-4-yl)-4-(2-oxa-7-aza-spiro[3.5]nonan-7-yl)phenyl)ethanesulfonamide]",56 nM
10,"[2H]C([2H])([2H])n1cc(-c2cc(S(=O)(=O)NCC)ccc2N2CCC3(CC2)CC3)c2cc[nH]c2c1=O [Compound 197, N-ethyl-3-(6-trideuteromethyl-7-oxo-6,7-dihydro-1H-pyrrolo [2,3-c]pyridin-4-yl)-4-(6-aza-spiro[2.5]octan-6-yl)benzenesulfonamide]",5 nM
11,"[2H]C([2H])([2H])n1cc(-c2cc(S(N)(=O)=O)cnc2N2CCC3(CC3)C2)c2cc[nH]c2c1=O [Compound 198, 5-(6-trideuteromethyl-7-oxo-6,7-dihydro-1H-pyrrolo[2,3-c]pyridin-4-yl)-6-(5-aza-spiro[2.4]heptan-5-yl)pyridin-3-sulfonamide]",10 nM
12,"[2H]C([2H])([2H])n1cc(-c2cc(S(N)(=O)=O)cnc2N2CCC3(CC2)CC3)c2cc[nH]c2c1=O [Compound 199, 5-(6-trideuteromethyl-7-oxo-6,7-dihydro-1H-pyrrolo[2,3-c]pyridin-4-yl)-6-(6-aza-spiro[2.5]octan-6-yl)pyridin-3-sulfonamide]",2 nM
13,"[2H]C([2H])([2H])n1cc(-c2cc(S(N)(=O)=O)ccc2N2CCC3(CC3)C2)c2cc[nH]c2c1=O [Compound 200, 3-(6-trideuteromethyl-7-oxo-6,7-dihydro-1H-pyrrolo[2,3-c]pyridin-4-yl)-4-(5-aza-spiro[2.4]heptan-5-yl)benzensulfonamide]",6.7 nM
14,"[2H]C([2H])([2H])n1cc(-c2cc(S(N)(=O)=O)ccc2N2CCC3(CC2)CC3)c2cc[nH]c2c1=O [Compound 201, 3-(6-trideuteromethyl-7-oxo-6,7-dihydro-1H-pyrrolo[2,3-c]pyridin-4-yl)-4-(6-azaspiro[2.5]octan-6-yl)benzenesulfonamide]",1.4 nM
15,"[2H]C([2H])([2H])n1cc(-c2cc(S(=O)(=O)N(C)C)ccc2N2CCC3(CC2)CC3)c2cc[nH]c2c1=O [Compound 203, N,N-dimethyl-3-(6-trideuteromethyl-7-oxo-6,7-dihydro-1H-pyrrolo[2,3-c]pyridin-4-yl)-4-(6-aza-spiro[2.5]octan-6-yl)benzenesulfonamide]",0.2 nM
16,"[2H]C([2H])([2H])n1cc(-c2cc(S(=O)(=O)NCCO)ccc2N2CCC3(CC2)CC3)c2cc[nH]c2c1=O [Compound 205, N-(2-hydroxyethyl)-3-(6-trideuteromethyl-7-oxo-6,7-dihydro-1H-pyrrolo[2,3-c]pyridin-4-yl)-4-(6-aza-spiro[2.5]octan-6-yl)benzenesulfonamide]",4.8 nM
17,"Cn1cc(-c2cc(C(=O)O)ccc2N2CCC3(CC2)CC3)c2cc[nH]c2c1=O [Compound 220, 3-(6-methyl-7-oxo-6,7-dihydro-1H-pyrrolo[2,3-c]pyridin-4-yl)-4-(6-aza-spiro[2.5]octan-6-yl)benzoic acid]",530 nM
18,"Cn1cc(-c2cc(C(N)=O)ccc2N2CCC3(CC2)CC3)c2cc[nH]c2c1=O [Compound 221, 3-(6-methyl-7-oxo-6,7-dihydro-1H-pyrrolo[2,3-c]pyridin-4-yl)-4-(6-aza-spiro[2.5]octan-6-yl)benzeneformamide]",130 nM
19,"COC(=O)c1ccc(N2CCC3(CC2)CC3)c(-c2cn(C)c(=O)c3[nH]ccc23)c1 [Compound 222, methyl 3-(6-methyl-7-oxo-6,7-dihydro-1H-pyrrolo[2,3-c]pyridin-4-yl)-4-(6-aza-spiro[2.5]octan-6-yl)benzoate]",350 nM
20,"CC(=O)c1ccc(N2CCC3(CC2)CC3)c(-c2cn(C)c(=O)c3[nH]ccc23)c1 [Compound 223, 4-(5-acetyl-2-(6-aza-spiro[2.5]octan-6-yl)phenyl)-6-methyl-1H-pyrrolo[2,3-c]pyridin-7(6H)-one]",110 nM
21,"Cn1cc(-c2cc(C(=O)N3CCS(=O)(=O)CC3)ccc2N2CCC3(CC2)CC3)c2cc[nH]c2c1=O [Compound 224, 4-(5-(1,1-dioxothiomorpholine-4-carbonyl)-2-(6-aza-spiro[2.5]octan-6-yl)phenyl)-6-methyl-1H-pyrrolo[2,3-c]pyridin-7(6H)-one]",62 nM
22,"Cn1cc(-c2cc(C(C)(C)O)ccc2N2CCC3(CC2)CC3)c2cc[nH]c2c1=O [Compound 225, 4-(5-(2-hydroxypropan-2-yl)-2-(6-aza-spiro[2.5]octan-6-yl)phenyl)-6-methyl-1H-pyrrolo[2,3-c]pyridin-7(6H)-one]",130 nM
23,CC(=O)Nc1ccc(N2CCC3(CC2)COC3)c(-c2cn(C)c(=O)c3[nH]ccc23)c1 [Compound 230],250 nM
24,"[2H]C([2H])([2H])n1cc(-c2cc(S(=O)(=O)CC)ccc2N2CCC3(CC2)CC3)c2cc[nH]c2c1=O [Compound 232, 4-(5-(ethylsulfonyl)-2-(6-aza-spiro[2.5]octan-6-yl)phenyl)-6-trideuteromethyl-1H-pyrrolo[2,3-c]pyridin-7(6H)-one]",0.6 nM
25,"[2H]C([2H])([2H])n1cc(-c2cc(S(=O)(=O)C(C)C)ccc2N2CCC3(CC2)CC3(F)F)c2cc[nH]c2c1=O [Compound 233, 4-(2-(1,1-difluoro-6-aza-spiro[2.5]octan-6-yl)-5-(isopropylsulfonyl)phenyl)-6-trideuteromethyl-1H-pyrrolo[2,3-c]pyridin-7(6H)-one]",1.3 nM
26,"[2H]C([2H])([2H])n1cc(-c2cc(S(=O)(=O)C(C)C)ccc2N2CCC3(CC2)CC3)c2cc[nH]c2c1=O [Compound 234, 4-(5-(isopropylsulfonyl)-2-(6-aza-spiro[2.5]octan-6-yl)phenyl)-6-trideuteromethyl-1H-pyrrolo[2,3-c]pyridin-7(6H)-one]",0.9 nM
27,"[2H]C([2H])([2H])n1cc(-c2cc(S(=O)(=O)CC(=O)O)ccc2N2CCC3(CC2)CC3)c2cc[nH]c2c1=O [Compound 235, 2-((3-(6-trideuteromethyl-7-oxo-6,7-dihydro-1H-pyrrolo[2,3-c]pyridin-4-yl)-4-(6-aza-spiro[2.5]octan-6-yl)phenyl)sulfonyl)acetic acid]",1.7 nM
28,"[2H]C([2H])([2H])n1cc(-c2cc(S(N)(=O)=O)c(F)cc2N2CCC3(CC2)CC3)c2cc[nH]c2c1=O [Compound 236, 2-fluoro-5-(6-trideuteromethyl-7-oxo-6,7-dihydro-1H-pyrrolo [2,3-c]pyridin-4-yl)-4-(6-aza-spiro[2.5]octan-6-yl)benzenesulfonamide]",3.2 nM
29,"[2H]C([2H])([2H])n1cc(-c2cc(S(C)(=O)=O)c(N3CCC4(CC3)CC4)cc2F)c2cc[nH]c2c1=O [Compound 237, 4-(2-fluoro-5-(methanesulfonyl)-4-(6-aza-spiro[2.5]octan-6-yl)phenyl)-6-trideuteromethyl-1H-pyrrolo[2,3-c]pyridin-7(6H)-one]",4.2 nM
30,"[2H]C([2H])([2H])n1cc(-c2cc(S(C)(=O)=O)c(F)cc2N2CCC3(CC2)CC3)c2cc[nH]c2c1=O [Compound 238, 4-(4-fluoro-5-(methanesulfonyl)-2-(6-aza-spiro[2.5]octan-6-yl)phenyl)-6-trideuteromethyl-1H-pyrrolo[2,3-c]pyridin-7(6H)-one]",8 nM
